Counter-ions that a name gives are not always drawn.
What follows are molecules tested on Reduced glutathione in salivary gland cell clusters (SGm) (assay: Glutathione assay in salivary gland tissue chip, 4 days post-radiation (15 Gy); also first screen of Selleck library at 100 μM). Settings: not given.
Type: cell-based, mouse
Description: (§1) A salivary gland tissue chip was leveraged for high-content drug screening to identify novel radioprotective compounds (Song Y et al., Commun Biol., 2021, 4). The chip platform consists of an array of near-spherical microbubble (MB) cavities formed in poly(dimethylsiloxane) (PDMS). Each chip, containing ~50 MBs, affixed within wells of a 96-well plate (FIG. 1C). Primary salivary gland cell clusters (FIG. 1A), suspended in a poly(ethylene glycol) (PEG) hydrogel precursor and MMP-degradable peptide crosslinker solution together with the photoinitiator LAP, were applied to the chip allowing the clusters to deposit into the MBs (FIG. 1D). In situ polymerization of the hydrogel was achieved using long-wave, low intensity UV light. Over time, the cell clusters aggregate and proliferate to form SGm (FIG. 1C).
The glutathione assay was used to measure glutathione levels at various time points post-radiation to determine the optimal time point for detecting differences between 0 Gy and 15 Gy. Based on the data, the greatest signal separation was measured at 4 days post-irradiation (FIG. 9). This timepoint is similar to previous reports on decreases in glutathione post-radiation and was used for all experiments moving forward (Meeks L et al., Physiological Genomics, 2021, 53: 85-98).
The dose response to WR-1065 was examined to determine effective concentrations of WR-1065 to prevent the reduction of glutathione levels post-radiation. A SGm tissue chip was cultured for 4 days to allow spheres to form. The chip was then treated with WR-1065 30 minutes before and during radiation, followed by drug wash out with media 30 minutes post-radiation (FIG. 2A). This dosing scheme is consistent with the use of Amifostine clinically and with previous work. The glutathione assay was performed at 4 days post-radiation (FIG. 2A). […] Moreover, it is clinically relevant as 15-30 minutes before radiation, patients are administered Amifostine intravenously at 200 mg/m (Escobar A et al., IntechOpen, 2019, pp. 15-37; Eisbruch A, J Clin Oncol, 2011, 29: 119-121; Bardet, E. et al. Semin Oncol, 2002, 29, 57-60). Assuming an average adult body surface area of 17,000 cm^2 and a blood volume of 1.35 gallons (5.1 liters), Amifostine is administered at 300 μM (Mosteller, R. D. N Engl J Med 317, 1098 (1987)).
The glutathione and senescence assays were used to screen a library of FDA-approved drugs (Selleck Chemicals) at 100 μM. Drugs were first screened using the glutathione assay according to the timeline depicted in FIG. 2A. Any compound resulting in statistically similar glutathione levels compared to 0 Gy control was considered a hit (FIG. 4, grey circles). Hits with the glutathione assay were then tested with the senescence assay and considered a “double hit” if senescence levels were statistically similar to levels at 0 Gy (FIG. 4, black circles). […] While this hit rate is higher than many other drug screening reports (0.1-0.3%), this may be due to the statistical rigor afforded by the tissue chip format (Blanchard, C et al., Antimicrob Agents Chemother 2016, 60, 862-872; Colquhoun, J. M et al., Antibiotics (Basel) 2019, 8, 48). Additionally, phenotypic screens generally have higher hit rates than target-based screens (>1%) (Moffat, J. G et al., Nature Reviews Drug Discovery 2017, 16, 531-543; Rottman, M et al., Science 2010, 329, 1175-1180).
Mice were euthanized and the submandibular glands (SMG) were removed and chopped with a razor blade for 5 min. The tissue was then incubated in Hank's buffered salt solution (HBSS) containing 15 mM HEPES, 50 U/mL collagenase type II (Thermo Fischer 17101015), and 100 U/mL hyaluronidase (Sigma Aldrich H3506) at 37 °C for 30 min. Cells were centrifuged, then resuspended in HBSS with 15 mM HEPES and passed through 100 μm and 20 μm mesh filters to isolate clusters between 20-100 μm. The digestion protocol produces cell cluster sizes evenly distributed between 20 to 100 μm (Song, Y et al., Advanced Healthcare Materials). […]

Cc1c(OCC(F)(F)F)ccnc1C[S+]([O-])c1nc2ccccc2[nH]1 (stereo not shown) [Lansoprazole] was tested, and the “Glutathione: Normalized mean intensity” value was 0.6174.

Same assay, conditions: dose response, 15 Gy

Cc1cnc(C(=O)NCCc2ccc(S(=O)(=O)NC(=O)NC3CCCCC3)cc2)cn1 [Glipizide (Glucotrol)] was tested, and the “radioprotection in dose response, glutathione assay” value was “protection only at higher concentrations”.

Same assay, conditions: first screen of Selleck library at 100 μM, 15 Gy, 4 days post-radiation

Compared with CN1CCC[C@@H]1CCO[C@](C)(c1ccccc1)c1ccc(Cl)cc1 [Clemastine Fumarate], CCCCC(=O)N(Cc1ccc(-c2ccccc2-c2nn[nH]n2)cc1)[C@H](C(=O)O)C(C)C [Valsartan (Diovan)] is lower in “Glutathione normalized mean intensity” value: 1.106 for the first, 0.6351 for the second.

First: CCc1cc(C(N)=S)ccn1 [Ethionamide]
Second: CN1[C@@H]2CC[C@H]1C[C@@H](OC(=O)c1c[nH]c3ccccc13)C2 [Tropisetron]
The “Glutathione normalized mean intensity” value of the first is higher: 0.7451 for the first, 0.5993 for the second.

First: OCCN(CCO)c1nc(N2CCCCC2)c2nc(N(CCO)CCO)nc(N3CCCCC3)c2n1 [Dipyridamole (Persantine)]
Second: NNC(=O)c1ccncc1 [Isoniazid (Tubizid)]
The “Glutathione normalized mean intensity” value of the first is higher: 0.5847 for the first, 0.3683 for the second.

First: CC1(C)[C@H](C(=O)O)N2C(=O)C[C@H]2S1(=O)=O [Sulbactam]
Second: CC(C)[C@H](N)C(=O)OCCOCn1cnc2c(=O)[nH]c(N)nc21 [Valaciclovir HCl]
The “Glutathione normalized mean intensity” value of the first is higher: 0.6491 for the first, 0.6362 for the second.

Compared with O=c1c(-c2ccc(O)cc2)coc2cc(O)ccc12 [Daidzein], CCOC(=O)[C@H](CCc1ccccc1)N[C@@H](C)C(=O)N1CCC[C@H]1C(=O)O [Enalapril maleate (Vasotec)] is higher in “Glutathione normalized mean intensity” value: 0.5394 for the first, 0.8307 for the second.

Compared with O=C1c2ccccc2C(=O)C1c1ccccc1 [Phenindione (Rectadione)], Bacitracin zinc is lower in “Glutathione normalized mean intensity” value: 0.6802 for the first, 0.6175 for the second.

Compared with Nc1ncn([C@@H]2O[C@H](CO)[C@@H](O)[C@H]2O)c(=O)n1 [Azacitidine (Vidaza)], CO[C@H]1/C=C/O[C@@]2(C)Oc3c(C)c(O)c4c(O)c(c5c(nc6cc(C)ccn65)c4c3C2=O)NC(=O)/C(C)=C\C=C\[C@H](C)[C@H](O)[C@@H](C)[C@@H](O)[C@@H](C)[C@H](OC(C)=O)[C@@H]1C [Rifaximin (Xifaxan)] is lower in “Glutathione normalized mean intensity” value: 0.5322 for the first, 0.3977 for the second.

First: CC(C)C(=O)Nc1ccc([N+](=O)[O-])c(C(F)(F)F)c1 [Flutamide (Eulexin)]
Second: Cc1cc(NS(=O)(=O)c2ccc(N)cc2)no1 [Sulfamethoxazole]
The “Glutathione normalized mean intensity” value of the first is lower: 0.6406 for the first, 0.8442 for the second.

First: CC1=CC(=O)c2ccccc2C1=O [Menadione]
Second: COc1ccc([C@@H]2Sc3ccccc3N(CCN(C)C)C(=O)[C@@H]2OC(C)=O)cc1 [Diltiazem HCL (Tiazac)]
The “Glutathione normalized mean intensity” value of the first is lower: 0.4363 for the first, 0.7425 for the second.

Going from COc1ccc(C(=O)CC(=O)c2ccc(C(C)(C)C)cc2)cc1 [Avobenzone (Parsol 1789)] to Vitamin B12, the “Glutathione normalized mean intensity” value rises from 0.5309 to 0.7029.

Compared with COc1c2occc2cc2ccc(=O)oc12 [Methoxsalen (Oxsoralen)], C[C@@H]1CN(c2c(F)c(N)c3c(=O)c(C(=O)O)cn(C4CC4)c3c2F)C[C@H](C)N1 [Sparfloxacin] is higher in “Glutathione normalized mean intensity” value: 0.6397 for the first, 0.7607 for the second.

First: Cc1cccc(C)c1NC(=O)CN1CCCC1=O [Nefiracetam (Translon)]
Second: CCCc1cc(C(N)=S)ccn1 [Protionamide (Prothionamide)]
The “Glutathione normalized mean intensity” value of the first is higher: 0.6824 for the first, 0.6328 for the second.

Going from C[C@@](Cc1ccc(O)c(O)c1)(NN)C(=O)O [Carbidopa] to O=c1[nH]c(=O)n([C@H]2C[C@H](O)[C@@H](CO)O2)cc1C(F)(F)F [Trifluridine (Viroptic)], the “Glutathione normalized mean intensity” value rises from 0.5325 to 0.7468.

Compared with COC(=O)Nc1nc2ccc([S+]([O-])c3ccccc3)cc2[nH]1 (stereo not shown) [Oxfendazole], COc1cc(NS(=O)(=O)c2ccc(N)cc2)nc(OC)n1 [Sulphadimethoxine] is higher in “Glutathione normalized mean intensity” value: 0.6 for the first, 0.8846 for the second.

Compared with CCCOc1ccc(C(=O)OCCN(CC)CC)cc1N [Proparacaine HCl], Nc1ncnc2c1ncn2[C@@H]1O[C@H](CO)[C@@H](O)[C@@H]1O [Vidarabine (Vira-A)] is lower in “Glutathione normalized mean intensity” value: 0.7045 for the first, 0.3742 for the second.

Same assay, conditions: nonlinear fit in Prism of dose response curves, 15 Gy

Cc1cnc(C(=O)NCCc2ccc(S(=O)(=O)NC(=O)NC3CCCCC3)cc2)cn1 [Glipizide (Glucotrol)] was tested, and the “Estimated EC50, Glutathione” value was 4.0 µM.

The molecules below were run on senescence-associated β-galactosidase in salivary gland cell clusters (SGm) (assay: Cellular senescence assay (SPiDER-βGal) in salivary gland tissue chip, 5 days post-radiation (15 Gy); also second screen of library hits at 100 μM). Settings: dose response, 15 Gy.
Type: cell-based, mouse
Description: as §1, with “The” for “A salivary gland tissue chip was leveraged for high-content drug screening to identify novel radioprotective compounds (Song Y et al., Commun Biol., 2021, 4). The”
For senescence, a protocol similar to the glutathione assay was followed to determine the optimal time point post-radiation for detecting a change in senescence between 0 Gy and 15 Gy, as measured by senescence-associated β-galactosidase activity.
The glutathione and senescence assays were used to screen a library of FDA-approved drugs (Selleck Chemicals) at 100 μM. Drugs were first screened using the glutathione assay according to the timeline depicted in FIG. 2A. […] Hits with the glutathione assay were then tested with the senescence assay and considered a “double hit” if senescence levels were statistically similar to levels at 0 Gy (FIG. 4, black circles).
Mice were euthanized and the submandibular glands (SMG) were removed and chopped with a razor blade for 5 min. […] Cells were centrifuged, then resuspended in HBSS with 15 mM HEPES and passed through 100 μm and 20 μm mesh filters to isolate clusters between 20-100 μm. […] The isolated clusters were combined with hydrogel precursor solution and seeded in MB array-based chips as described below.
The cell/gel precursor solution (25 μL for 48 well; 20 μL for 96 well) was pipetted onto the MB chips and incubated for 30 min, pipetting every 10 min to redisperse cells that had settled onto the surface of the chip.
A cellular senescence assay for the chips was developed by adapting the Cellular Senescence Detection Kit—SPiDER-βGal (Dojindo Molecular Technologies, Inc. SG04). Bafilomycin A1 and SPiDER-βGal stock solutions were prepared in DMSO per manufacturer directions. The assay was performed by first incubating the chips with bafilomycin A1 (1:1000 dilution in media) for 1 hr at 37 °C. […] Chips were washed twice with media and imaged using a fluorescence microscope with a Texas Red filter (Excitation: 580 nm; Emission: 604 nm).
For radioprotection experiments, SGm were cultured in MB-hydrogel chips for 4 days, then drugs were added to the chips 30 min prior to irradiation and washed out with media 30 min post-radiation treatment. […] The glutathione and senescence assays were performed at 4- and 5-days post-radiation. For assay validation experiments, at least 3 chips (N=3) were used for each drug, corresponding to >100 MBs (n>100); these values are listed in the figure description for each experiment. Mean, standard deviation, and statistics were calculated based on the number of MBs (n).
For screening of the Selleck Chemicals compound library, the same treatment scheme was used, with drugs administered at 100 μM. One MB chip (N=1) was used per compound, with ~40-50 MBs per chip […]; statistics were calculated using the number of MBs (n) and compared to 0 Gy controls.
For both the glutathione and cellular senescence assays, images were quantified in ImageJ.

With Cc1cnc(C(=O)NCCc2ccc(S(=O)(=O)NC(=O)NC3CCCCC3)cc2)cn1 [Glipizide (Glucotrol)] the “radioprotection in dose response, senescence assay” value was “variable protection”.

Same assay, conditions: glutathione and senescence assays, 100 μM, statistically similar to 0 Gy

For CO[C@H]1/C=C/O[C@@]2(C)Oc3c(C)c(O)c4c(c3C2=O)C2=NC3(CCN(CC(C)C)CC3)NC2=C(NC(=O)/C(C)=C\C=C\[C@H](C)[C@H](O)[C@@H](C)[C@@H](O)[C@@H](C)[C@H](OC(C)=O)[C@@H]1C)C4=O [Rifabutin (Mycobutin)], the “double hit in the drug screen” value was “double hits”.
With CO[C@H]1/C=C/O[C@@]2(C)Oc3c(C)c(O)c4c(O)c(c(/C=N/N5CCN(C)CC5)c(O)c4c3C2=O)NC(=O)/C(C)=C\C=C\[C@H](C)[C@H](O)[C@@H](C)[C@@H](O)[C@@H](C)[C@H](OC(C)=O)[C@@H]1C [Rifampin] the “double hit in the drug screen” value was “double hits”.

Same assay, conditions: second screen of library hits at 100 μM, 15 Gy, 5 days post-radiation; only drugs nonsignificant compared to 0 Gy in the glutathione assay

For CN1CCC[C@@H]1CCO[C@](C)(c1ccccc1)c1ccc(Cl)cc1 [Clemastine Fumarate], the “Senescence normalized mean intensity” value was 1.237.

Source: patent US20260345555A1, “Compositions and Methods for Protecting Salivary Glands from Off-Target Radiation Damage” (University of Rochester, priority 2022, published 2026)
